By CC50 is commonly meant the concentration giving 50% cytotoxicity. A word on the Papp A→B: it is the apparent permeability from the apical to the basolateral side of a cell layer. High values mean ready permeation, low ones poor permeation. For orientation: Papp B→A means the apparent permeability from the basolateral to the apical side of a cell layer. In general, efflux ratio refers to a quotient of directional permeabilities that is used to spot active efflux.

“Also recorded” adds a separate entry of the source. Read-outs that look alike come from different tables or passages of the source.

Results on 19 molecules are retold here after PMC11995402 (ACS infectious diseases, 2025).

For series [1], the system named is A. ceylanicum. Put plainly: adult hookworm whole-worm motility inhibition assay. It is filed as cell-based, Ancylostoma ceylanicum. To be noted: for IC50: motility; for worm motility inhibition, SAR statement (in words): A. ceylanicum, 30 μM, 48 h (Figures 3-5).
Series [2] deals with T. muris. Put plainly: adult whipworm whole-worm motility inhibition assay. It is filed as cell-based, Trichuris muris. As to conditions: for worm motility inhibition, SAR statement (in words): T. muris, 50 μM, 48 h (Figures 3-5); for worm motility inhibition (in words) / motility inhibition: adult T. muris; for worm motility inhibition (in words): 30 μM (Figure 1); for motility inhibition: 30 μM.

The test system of series [3] is HepG2 cells. The series can be described thus: HepG2 MTT viability assay. To be noted: for CC50: read-out: HEPG2 cells CC50 μM (95% CI) 24 h, MTT viability, 24 h. (Tetrazolium dyes change colour on reduction, which living cells bring about.)
The test system of series [4] is CK2α/PI3Kγ. As to conditions: cited from earlier work.
Series [5] relates to MDR1-MDCK II cells.
A short description of series [6]: in vitro. As to conditions: dog.
In series [7] the test system is MDR1 (P-gp). Put plainly: in vitro. To be noted: dog, MDCK-MDR1.
The mark [8] stands for this setting: read-out: A. ceylanicum IC50 μM (95% CI) 24 h, 24 h.
Where [9] appears, read: read-out: A. ceylanicum IC50 μM (95% CI) 48 h, 48 h.
Setting [10] is: read-out: T. muris IC50 μM (95% CI) 24 h, motility, 24 h.
[11] abbreviates: read-out: T. muris IC50 μM (95% CI) 48 h, motility, 48 h.

In the case of `CC(C)C[C@H]1C(=O)O[C@H](Cc2ccc(N3CCOCC3)cc2)C(=O)N(C)[C@@H](CC(C)C)C(=O)O[C@H](C)C(=O)N(C)[C@@H](CC(C)C)C(=O)O[C@H](Cc2ccc(N3CCOCC3)cc2)C(=O)N(C)[C@@H](CC(C)C)C(=O)O[C@H](C)C(=O)N1C` [emodepside], the IC50 in series [1] (setting [8]) is 0.0033 µM; in series [1] (setting [9]), 0.0011 µM; in series [2] (setting [10]), 0.0143 µM; in series [2] (setting [11]), 0.0345 µM.
As to `CN1CCCN(C(=O)c2cccc(-c3ccc(C=C4C(=O)Nc5ccccc54)o3)c2)CC1` [Compound 11], the “worm motility inhibition, SAR statement (in words)” value in series [1] and in series [2] was “neither an increase nor decrease to activity” each time. Moreover, the IC50 in series [1] (setting [8]) is 25.2 µM; in series [1] (setting [9]) it was 8.8 µM; in series [2] (setting [10]) it was above 90 µM; in series [2] (setting [11]), above 90 µM. In series [3], the CC50 is 22.2 µM.
For `Cc1ccc(-c2csc3ncnc(SCCC(=O)O)c23)cc1` [TTP22], in series [2], the “worm motility inhibition (in words)” value is listed as “did not show measurable inhibition of worm motility”.
For the molecule `C[C@H](NC(=O)c1c(N)nn2cccnc12)c1cc2cccc(C#Cc3cnn(C)c3)c2c(=O)n1-c1ccccc1` [IPI-549], the “worm motility inhibition (in words)” value in series [2] is listed as “did not show measurable inhibition of worm motility”.
In the case of `CN1CCCN(C(=O)c2cccc(-c3ccc(C=C4C(=O)Nc5ccc(N)cc54)o3)c2)CC1` [Compound 7], the results for the “worm motility inhibition, SAR statement (in words)” value in series [1] and in series [2] were “not against A. ceylanicum; also recorded: inactive against both species” and “complete loss of activity; also recorded: inactive against both species”, respectively.
In the case of ivermectin, the IC50 in series [2] (setting [10]) was above 300 µM; in series [2] (setting [11]), 89.6 µM.
In the case of `O=C1NC(=O)/C(=C/c2ccc(-c3ccc(F)cc3O)o2)S1` [AS-252424], the “selectivity for PI3Kγ over PI3Kα” value in series [4] is 30 fold. The IC50 in series [4] (read-out: IC50 (dual inhibitor of CK2α/PI3Kγ)) was 0.03 µM. The “worm motility inhibition (in words)” value in series [2] is listed as “excellent worm motility inhibition”.
Take `C[C@H]1O[C@@H](O[C@H]2[C@@H](O)C[C@H](O[C@H]3[C@@H](O)C[C@H](O[C@H]4CC[C@@]5(C)[C@H](CC[C@@H]6[C@@H]5C[C@@H](O)[C@]5(C)[C@@H](C7=CC(=O)OC7)CC[C@]65O)C4)O[C@@H]3C)O[C@@H]2C)C[C@H](O)[C@@H]1O` [digoxin]: the “Rank Papp” value in series [5] (MDR1-MDCK II cells) is reported as “low”. This molecule came in with a recovery in series [6] (MDCK-MDR1, mean solution recovery % A to B, MDR1-MDCK II cells) of 77.5%. Besides, the recovery in series [6] (MDCK-MDR1, mean solution recovery % B to A, MDR1-MDCK II cells) was 92.7%. Also, in series [7], the Papp A→B turned out to be 0.151 ×10⁻⁶ cm/s, the Papp B→A came to 3.43 ×10⁻⁶ cm/s and the efflux ratio is 22.8.
For `CN1CCCN(C(=O)c2cccc(-c3ccc(C=C4C(=O)Nc5c(Cl)cccc54)o3)c2)CC1` [Compound 8], the “worm motility inhibition, SAR statement (in words)” value in series [1] is “hookworm selective; also recorded: neither an increase nor decrease to activity”; in series [2], “neither an increase nor decrease to activity”. Also, the IC50 in series [1] (setting [8]) is 40 µM; in series [1] (setting [9]), 21 µM; in series [2] (setting [10]) it was 42 µM; in series [2] (setting [11]), above 90 µM. The CC50 in series [3] was determined as 15.5 µM. The “fold increase in cytotoxicity (measured by CC50)” value in series [3] (relative to CX-6258) is 2.4 fold.
`CCCOc1ccc(/C=C2\SC(=O)NC2=O)cc1` [SMI-16a]: in series [2] (@48 h (Figure 1B)), the motility inhibition is given as 57%.
Take `CC(C)(C)NCC(O)COc1cccc2c1CC(O)C(O)C2` (stereo not drawn) [nadolol]: in series [5] (MDCK-MDR1), the “Rank Papp” value is reported as “low”. In series [6] (MDCK-MDR1), this molecule came in with a recovery of 83.1%. For the same molecule, in series [7], the Papp A→B turned out to be 0.05 ×10⁻⁶ cm/s.
In the case of `Cc1ccc2c(c1)C(=Cc1ccc(-c3cccc(C(=O)N4CCCN(C)CC4)c3)o1)C(=O)N2` [Compound 10], the “worm motility inhibition, SAR statement (in words)” value in series [1] and in series [2] was “inactivated the inhibition of both species” in each case.
Regarding `COCCc1ccc(OCC(O)CNC(C)C)cc1` (stereo not drawn) [metoprolol], the “Rank Papp” value in series [5] (MDCK-MDR1) is listed as “high”. The molecule further yielded a recovery in series [6] (MDCK-MDR1) of 97.4%. Moreover, the Papp A→B in series [7] was found to be 25.6 ×10⁻⁶ cm/s.
As for `N[C@@H]1CCCN(c2c(/C=C3\SC(=O)NC3=O)cccc2-c2ccccc2)C1` [AZD1208], the “worm motility inhibition (in words)” value in series [2] was “inactive”.
In series [2] (@48 h (Figure 1B)), `O=C1NC(=O)/C(=C/c2cccc(C(F)(F)F)c2)S1` [SMI-4a] yielded a motility inhibition of 71%.
Take `CCCSc1ccc2nc(NC(=O)OC)[nH]c2c1` [albendazole]: the IC50 in series [2] (Trichuris muris, 24 h, read-out: T. muris IC50 μM (95% CI) 24 h) was above 300 µM; in series [2] (Trichuris muris, 48 h, read-out: T. muris IC50 μM (95% CI) 48 h), above 300 µM.
Turning to `CN1CCC(CNc2ccc3ncc(-c4cccc(OC(F)(F)F)c4)n3n2)CC1` [SGI-1776], in series [2], the “worm motility inhibition (in words)” value is on record as “excellent inhibition”.
For `O=C(O)c1ccc2c(c1)nc(Nc1cccc(Cl)c1)c1ccncc12` [CX-4945], the “worm motility inhibition (in words)” value in series [2] is given as “did not show measurable inhibition of worm motility”.
As for `N#Cc1c(-c2ccccc2)cc(-c2cc(Br)ccc2O)[nH]c1=O` [TCS-PIM1], the “worm motility inhibition (in words)” value in series [2] was “excellent inhibition”. This molecule had a motility inhibition in series [2] (relative to DMSO controls) of 100%.
